This passage reports inhibition results from PubChem BioAssay AID1053198 (The Scripps Research Institute Molecular Screening Center, 2014).

SMILES strings stand for the structures. The source made the active and inactive calls. The rule behind the calls is not given here.

The experiment is described as follows: T. brucei MetRS enzyme inhibitors, late-stage follow-up, biochemical, radioactivity, assay provider, round 2 (AID 1053198). The settings on record: purified enzyme, radiolabel aminoacylation, 120 min, stronger effect = higher value.

The inhibition is the change of the read-out against control, counted positive when it falls. Consider `CCN(CC)C(=O)C(=O)c1cn(CC(=O)Nc2cc(Br)cc(C(F)(F)F)c2)c2ccccc12`, for which the inhibition is 101% (at 10 µM) and 95.8% (inhibition, at 1 µM).

On to `CCN(CC)C(=O)C(=O)c1cn(CC(=O)Nc2cc(C)cc(C(F)(F)F)c2)c2ccccc12`, for which the inhibition by setting is: (at 10 µM) 100%; (inhibition, at 1 µM) 96.2%.

`CCN(CC)C(=O)C(=O)c1cn(CC(=O)Nc2cc(Oc3ccccc3)cc(C(F)(F)F)c2)c2ccccc12`: the inhibition is 98.3% (at 10 µM) and 95.6% (inhibition, at 1 µM).

Regarding `CCN(CC)C(=O)C(=O)c1cn(CC(=O)Nc2cc(C(F)(F)F)cc(C(F)(F)F)c2)c2ccccc12`, the inhibition (at 10 µM) is 100% and the inhibition (inhibition, at 1 µM) worked out at 90.3%.

With `CCN(CC)C(=O)C(=O)c1cn(CC(=O)Nc2cccc(C(F)(F)F)c2)c2cc(OC)ccc12`, the inhibition is 4.41% (inactive) (at 10 µM) and -4.41% (inhibition, at 1 µM).

With `CCN(CC)C(=O)C(=O)c1cn(CC(=O)Nc2cc(Cl)cc(C(F)(F)F)c2)c2ccccc12`, the inhibition is, setting by setting: (at 10 µM) 100%; (inhibition, at 1 µM) 95.2%.
